ChEMBL document CHEMBL3600373, “Mapping Selective Inhibition of the Cancer-Related Carbonic Anhydrase IX Using Structure-Activity Relationships of Glucosyl-Based Sulfamates” (J Med Chem, 2015)

Legend:
[1] = molecular target: T1, Carbonic anhydrase 9 (Homo sapiens, UniProt Q16790); test: Binding affinity to human CA9
[2] = molecular target: Carbonic anhydrase 2 (Homo sapiens, UniProt P00918); test: Binding affinity to human CA2
[3] = molecular target: Carbonic anhydrase 12 (Homo sapiens, UniProt O43570); test: Inhibition of human recombinant CA12 expressed in Escherichia coli by stopped flow CO2 hydration assay
Sequence of Carbonic anhydrase 12 (O43570 whole entry): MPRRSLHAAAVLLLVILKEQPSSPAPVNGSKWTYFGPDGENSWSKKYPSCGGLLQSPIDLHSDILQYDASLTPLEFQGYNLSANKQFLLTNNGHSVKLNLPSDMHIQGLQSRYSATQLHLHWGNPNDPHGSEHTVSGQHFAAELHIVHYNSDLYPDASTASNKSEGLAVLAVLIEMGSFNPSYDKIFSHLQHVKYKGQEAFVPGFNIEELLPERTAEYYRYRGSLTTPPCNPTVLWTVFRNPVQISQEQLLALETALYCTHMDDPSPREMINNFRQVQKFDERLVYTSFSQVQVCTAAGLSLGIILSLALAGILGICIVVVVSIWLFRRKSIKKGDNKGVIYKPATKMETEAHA

[4] = molecular target: T1, Carbonic anhydrase 9
Description: Inhibition of human recombinant CA9 expressed in Escherichia coli by stopped flow CO2 hydration assay

Compound	Kd [1] [mM]	Kd [2] [mM]	Ki [3] [nM]	Ki [4] [nM]
OC[C@H]1O[C@@](CO)(O[C@H]2O[C@H](CO)[C@@H](O)[C@H](O)[C@H]2O)[C@@H](O)[C@@H]1O [SUCROSE]	150	450		
CC(=O)OC[C@H]1O[C@@H](S(=O)(=O)NCCCCCOS(N)(=O)=O)[C@H](OC(C)=O)[C@@H](OC(C)=O)[C@@H]1OC(C)=O			9	2
